Results from patent publication US20060089395A1, “Nf-kb activation inhibitors” (priority 2002, published 2006).
Entries after “also recorded” stand apart in the source; their conditions may differ. Where two headings read alike, the source gives them in different places.

Tests used:
[1] = system: Vascular smooth muscle cells of normal coronary artery (Cryo CASMC); assay: Inhibitory test against proliferation of vascular smooth muscle cells of normal coronary artery under proliferation stimulation (MTS assay); format: cell-based; conditions: FGF and EGF stimulation, 72 hours
Experimental: Vascular smooth muscle cells of normal coronary artery (Cryo CASMC) were cultured for 2 hours in the presence or absence of a test substance in DMEM medium containing 0.5% of FBS and insulin (5 u g/ml). Then, FGF and EGF were added for proliferation stimulation. The mixture was cultured for 72 hours and proliferation of the cells were measured by the MTS assay. The results aree shown in the following

IL-6 = assay: Inhibition of IL-6 production by TNFα stimulation in synovial fibroblasts derived from a rheumatoid patient (ELISA); format: cell-based, human; conditions: for IC50: synovial fibroblasts, 10 ng/ml TNFα, 3 days, read-out: Inhibition against Mediator Release IC50(nM) IL-6; for inhibition of the production of IL-6 (in words): rheumatic patient-derived synovial fibroblasts under TNFα stimulation
Experimental: (§1) Synovial fibroblasts (Human Synoviocyte (RA-Positive), Toyobo, T4040-05) were cultured for 3 days in a medium containing 10 ng/ml of TNFα and a test compound. IL-6 and IL-8 in the supernatant were measured by the ELISA method, and PGE2 (prostaglandin E2) was measured by the EIA method.

PGE2 = assay: Inhibition of PGE2 production by TNFα stimulation in synovial fibroblasts derived from a rheumatoid patient (EIA); format: cell-based, human; conditions: for IC50: synovial fibroblasts, 10 ng/ml TNFα, 3 days, read-out: Inhibition against Mediator Release IC50(nM) PGE2; for inhibition of the production of PGE2 (in words): rheumatic patient-derived synovial fibroblasts under TNFα stimulation
Experimental: as §1

NF-κ B = assay: Inhibitory activity of NF-κ B activation, luciferase reporter assay in HepG2 under TNF-α stimulation; format: cell-based, human
Summary of the method: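 HepG2 cells transiently transfected with a luciferase reporter driven by five tandem NF-κB binding sites, then incubated 6–24 h. Stimulated with TNF-α (40 ng/ml) with or without test compound for 4 h. Intracellular luciferase read by chemiluminescence; inhibition expressed relative to activity without compound.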

IL-8 = assay: Inhibition of IL-8 production by TNFα stimulation in synovial fibroblasts derived from a rheumatoid patient (ELISA); format: cell-based, human; conditions: for IC50: synovial fibroblasts, 10 ng/ml TNFα, 3 days, read-out: Inhibition against Mediator Release IC50(nM) IL-8; for inhibition of the production of IL-8 (in words): rheumatic patient-derived synovial fibroblasts under TNFα stimulation
Experimental: as §1

[2] = system: type II collagen induced arthritis; assay: Inhibitory test against type II collagen induced arthritis in mice; format: in vivo, Balb/c mice; conditions: 10 mg/kg intraperitoneally once in two days; day 44; score of the control = 100%
Experimental: Balb/c mice were immunized with heterologous type II collagen and Freund's complete adjuvant by subcutaneous or intraperitoneal injection. At 21 days after the treatment, these mice were immunized again with heterologous type II collagen and Freund's incomplete adjuvant by subcutaneous or intraperitoneal injection to develop arthritis.
A test substance suspended in an appropriate diluent or the diluent alone (negative control) was administered intraperitoneally once in two days from the day of the first immunization, and as for arthritis developed after the second immunization, clinical symptoms of each ankle joint of all foots were recorded day after day as numerous scores. When the score of the control measured on day 44 after administration of 10 mg/kg of the medicament of the present invention was expresses as 100%, rates of exacerbation (%) of the clinical symptoms of arthritis were 37.5 (Compound No. 4), 76.5 (Compound No. 90), 56.2 (Compound No. 11), 64.0 (Compound No. 88), and 0.0 (Compound No. 83).

[3] = Homo sapiens, 1 μg/mL, HepG2, TNF-α (40 ng/ml), 4 hours, read-out: Inhibitory Ratio of NF-κ B Activation(%) Drug Concentration 1 μg/mL
[4] = Homo sapiens, 10 μg/mL, HepG2, TNF-α (40 ng/ml), 4 hours, read-out: Inhibitory Ratio of NF-κ B Activation(%) Drug Concentration 10 μg/mL
[5] = 1 μg/mL, HepG2, TNF-α (40 ng/ml), 4 hours
[6] = 10 μg/mL, HepG2, TNF-α (40 ng/ml), 4 hours

Row | Structure (SMILES) | Inhibitory Ratio of Proliferation(%) Compound Concentration 250 nM [1] | Inhibitory Ratio of Proliferation(%) Compound Concentration 500 nM [1] | IC50 (IL-6; Homo sapiens, Fibroblast, 72 h) | IC50 (PGE2; Homo sapiens, Fibroblast, 72 h) | inhibition at 0.1 µg/mL (NF-κ B; Homo sapiens, HepG2, 4 h, 0.1 μg/ml, comparison table, reporter assay, read-out: Inhibitory Ratio of NF-κB Activation (%) 0.1 μg/ml) | inhibition at 1 µg/mL (NF-κ B; Homo sapiens, HepG2, 4 h, 1 μg/ml, comparison table, reporter assay, read-out: Inhibitory Ratio of NF-κB Activation (%) 1 μg/ml) | inhibition at 10 µg/mL (NF-κ B; Homo sapiens, HepG2, 4 h, 10 μg/ml, comparison table, reporter assay, read-out: Inhibitory Ratio of NF-κB Activation (%) 10 μg/ml) | inhibition at 1 µg/mL (NF-κ B; [3]) | inhibition at 10 µg/mL (NF-κ B; [4]) | IC50 (IL-8; Homo sapiens, Fibroblast, 72 h) | IC50 (IL-6) | IC50 (PGE2) | Inhibitory Ratio of NF-κ B Activation(%) Drug Concentration 1 μg/mL (NF-κ B; [5]) | Inhibitory Ratio of NF-κ B Activation(%) Drug Concentration 10 μg/mL (NF-κ B; [6]) | IC50 (IL-8) | inhibition of the production of IL-6 (in words) (IL-6) | inhibition of the production of PGE2 (in words) (PGE2) | inhibition of the production of IL-8 (in words) (IL-8) | rates of exacerbation (%) of the clinical symptoms of arthritis [2]
1 | CC(C)(C)C(=O)c1sc(NC(=O)c2cc(Cl)ccc2O)nc1C(C)(C)C [Compound No.199, 5-Chloro-N-{4-[(1,1-dimethyl)ethyl]-5-[(2,2-dimethyl)propionyl]thiazol-2-yl)-2-hydroxybenzamide] | 35.1% | 84.6% | 309 nM | 68 nM | 19.6% | 96.4% | 98.4% | 96.4% | 98.4% | 458 nM |  |  |  |  |  |  |  |  | 
2 | O=C(Nc1cc(C(F)(F)F)cc(C(F)(F)F)c1)c1cc(-c2ccccc2)ccc1O [Compound No. 23] | 31.6% | 89% |  |  |  |  |  |  |  |  | 540 nM | 809 nM | 91.8% | 96.8% | 876 nM |  |  |  | 
3 | O=C(Nc1cc(C(F)(F)F)cc(C(F)(F)F)c1)c1ccc(Cl)cc1O [Compound No. 51] | 26.2% | 86.6% |  |  |  |  |  |  |  |  | 874 nM | 863 nM | 90.5% | 98.2% | 832 nM |  |  |  | 
4 | O=C(Nc1cc(C(F)(F)F)cc(C(F)(F)F)c1)c1ccc2ccccc2c1O [Compound No. 71] | 81.6% | 92.4% |  |  |  |  |  |  |  |  |  |  | 89.6% | 95.0% |  |  |  |  | 
5 | O=C(Nc1cc(C(F)(F)F)ccc1C(F)(F)F)c1cc(Br)ccc1O [Compound No. 83] | 27.1% | 87.9% |  |  |  |  |  |  |  |  | < 10 nM | < 10 nM | 95.7% | 98.3% | 62 nM | potently inhibited; also recorded: strongly inhibited | potently inhibited; also recorded: strongly inhibited | potently inhibited; also recorded: strongly inhibited | 0.0%
6 | O=C(Nc1cc(C(F)(F)F)ccc1Cl)c1cc(Cl)ccc1O [Compound No. 88, 5-chloro-N-[2-chloro-5-(trifluoromethyl)phenyl]-2-hydroxybenzamide] |  |  | 88 nM | 33 nM |  |  |  | 94.8% | 97.1% |  |  |  |  |  |  | potently inhibited; also recorded: strongly inhibited | potently inhibited; also recorded: strongly inhibited | potently inhibited; also recorded: strongly inhibited | 64.0%
7 | COc1cc(NC(=O)c2cc(Br)ccc2O)cc(C(F)(F)F)c1 [Compound No. 93] | 12.1% | 87.2% |  |  |  |  |  |  |  |  | 130 nM | 47 nM | 84.5% | 97.2% | 753 nM |  |  |  | 
8 | CC(C)(C)c1cc(NC(=O)c2cc(Br)ccc2O)cc(C(C)(C)C)c1 [Compound No. 140] | 4.3% | 86.1% |  |  |  |  |  |  |  |  | 808 nM | 21 nM | 70.9% | 82.0% |  |  |  |  | 
9 | CC(C)(C)C(=O)c1sc(NC(=O)c2cc(Br)ccc2O)nc1C(C)(C)C [Compound No. 201] | 59.8% | 84.4% |  |  |  |  |  |  |  |  | 317 nM | 53 nM | 86.8% | 97.5% | 599 nM |  |  |  | 
10 | CC(C)(C)c1nc(NC(=O)c2cc(Br)ccc2O)sc1N1CCN(c2ccccc2)CC1 [Compound No. 207, 5-Bromo-N-{4-[(1,1-dimethyl)ethyl]-5-(4-phenylpiperazin-1-yl)thiazol-2-yl}-2-hydroxybenzamide] | 52.5% | 84% | 641 nM | 834 nM |  |  |  | 92.5% | 95.9% | 832 nM |  |  |  |  |  |  |  |  | 
11 | COc1ccc(Oc2ccc(C(F)(F)F)cc2NC(=O)c2cc(Cl)ccc2O)cc1 [Compound No. 253] | 84.1% | 91% |  |  |  |  |  |  |  |  |  |  | 96.3% | 99.5% |  |  |  |  | 
12 | O=C(Nc1cc(C(F)(F)F)ccc1C(F)(F)F)c1cc(Br)ccc1O [Compound No. 268] | 5.6% | 9.8% |  |  |  |  |  |  |  |  |  |  | 87.1% | 98.4% |  |  |  |  | 
13 | O=C(Nc1cc(C(F)(F)F)cc(C(F)(F)F)c1)c1cc(Br)ccc1O [compound 6] | 88.0% | 94.8% |  |  |  |  |  |  |  |  | 352 nM | 358 nM | 94.9% | 98.6% | 351 nM |  |  |  | 
